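96-well plates; 48 h exposure; 5 concentrations. Endpoints by linear interpolation between flanking doses. Not reached: highest tested concentration assigned. GI50: concentration for 50% inhibition of growth.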 Calls of active or inactive are those of the source. Cut-off read from the data, not from the text of the source: active = GI50 up to about 1.1 µM and inactive = higher.
Experiments:
Assay in all cases: NCI anticancer screen, dose series, 48 h
[1] = test system: 786-0
[2] = test system: A549
[3] = test system: ACHN
[4] = test system: CAKI-1
[5] = test system: CCRF-CEM
[6] = test system: COLO 205
[7] = test system: DLD-1
[8] = test system: DMS-114
[9] = test system: DMS-273
[10] = test system: EKVX
[11] = test system: HCC 2998
[12] = test system: HCT-116
[13] = test system: HCT-15
[14] = test system: HL-60
[15] = test system: HOP-62
[16] = test system: HOP-92
[17] = test system: HT-29
[18] = test system: IGROV-1
[19] = test system: K562
[20] = test system: KM-20L2
[21] = test system: KM12
[22] = test system: LOX IMVI
[23] = test system: LXFL 529
[24] = test system: M14
[25] = test system: M19-MEL
[26] = test system: Malme-3M
[27] = test system: NCI-H226
[28] = test system: NCI-H23
[29] = test system: NCI-H460
[30] = test system: NCI-H522
[31] = test system: OVCAR-3
[32] = test system: OVCAR-4
[33] = test system: OVCAR-5
[34] = test system: OVCAR-8
[35] = test system: RPMI-8226
[36] = test system: RXF 393
[37] = test system: RXF 631
[38] = test system: SF-268
[39] = test system: SF-295
[40] = test system: SF-539
[41] = test system: SK-MEL-28
[42] = test system: SK-MEL-2
[43] = test system: SK-MEL-5
[44] = test system: SK-OV-3
[45] = test system: SN12C
[46] = test system: SNB-19
[47] = test system: SNB-75
[48] = test system: SNB-78
[49] = test system: SR
[50] = test system: SW-620
[51] = test system: TK-10
[52] = test system: U-251
[53] = test system: UACC-257
[54] = test system: UACC-62
[55] = test system: UO-31
[56] = test system: XF498
[57] = test system: A498
[58] = test system: MOLT-4

Compound: CC1CN(c2ccc(Cl)cc2)CC(C)(C)OC(=O)O1 (stereo not drawn)
- GI50 [1]: > 100 µM (inactive)
- GI50 [2]: > 100 µM (inactive)
- GI50 [3]: > 100 µM (inactive)
- GI50 [4]: > 100 µM (inactive)
- GI50 [5]: > 100 µM (inactive)
- GI50 [6]: > 100 µM (inactive)
- GI50 [7]: > 100 µM (inactive)
- GI50 [8]: > 100 µM (inactive)
- GI50 [9]: > 100 µM (inactive)
- GI50 [10]: > 100 µM (inactive)
- GI50 [11]: > 100 µM (inactive)
- GI50 [12]: > 100 µM (inactive)
- GI50 [13]: > 100 µM
- GI50 [14]: > 100 µM (inactive)
- GI50 [15]: > 100 µM (inactive)
- GI50 [16]: > 100 µM (inactive)
- GI50 [17]: > 100 µM (inactive)
- GI50 [18]: > 100 µM (inactive)
- GI50 [19]: > 100 µM (inactive)
- GI50 [20]: > 100 µM (inactive)
- GI50 [21]: > 100 µM (inactive)
- GI50 [22]: > 100 µM (inactive)
- GI50 [23]: > 100 µM (inactive)
- GI50 [24]: > 100 µM (inactive)
- GI50 [25]: > 100 µM (inactive)
- GI50 [26]: > 100 µM (inactive)
- GI50 [27]: > 100 µM (inactive)
- GI50 [28]: > 100 µM (inactive)
- GI50 [29]: > 100 µM (inactive)
- GI50 [30]: > 100 µM (inactive)
- GI50 [31]: > 100 µM (inactive)
- GI50 [32]: > 100 µM (inactive)
- GI50 [33]: > 100 µM (inactive)
- GI50 [34]: > 100 µM (inactive)
- GI50 [35]: > 100 µM (inactive)
- GI50 [36]: > 100 µM (inactive)
- GI50 [37]: > 100 µM (inactive)
- GI50 [38]: > 100 µM (inactive)
- GI50 [39]: > 100 µM (inactive)
- GI50 [40]: > 100 µM (inactive)
- GI50 [41]: > 100 µM (inactive)
- GI50 [42]: > 100 µM (inactive)
- GI50 [43]: > 100 µM (inactive)
- GI50 [44]: > 100 µM (inactive)
- GI50 [45]: > 100 µM (inactive)
- GI50 [46]: > 100 µM (inactive)
- GI50 [47]: > 100 µM (inactive)
- GI50 [48]: > 100 µM (inactive)
- GI50 [49]: > 100 µM (inactive)
- GI50 [50]: > 100 µM (inactive)
- GI50 [51]: > 100 µM (inactive)
- GI50 [52]: > 100 µM (inactive)
- GI50 [53]: > 100 µM (inactive)
- GI50 [54]: > 100 µM (inactive)
- GI50 [55]: > 100 µM (inactive)
- GI50 [56]: > 100 µM (inactive)

Compound: c1ccc(CNc2ccc3[nH]c4cnccc4c3c2)cc1
- GI50 [1]: 15.3 µM (inactive)
- GI50 [57]: 15 µM (inactive)
- GI50 [2]: 17.9 µM (inactive)
- GI50 [3]: 15.1 µM (inactive)
- GI50 [4]: 16.2 µM (inactive)
- GI50 [5]: 16.9 µM (inactive)
- GI50 [6]: 15.9 µM (inactive)
- GI50 [7]: 16.6 µM (inactive)
- GI50 [8]: 14.8 µM (inactive)
- GI50 [9]: 19.8 µM (inactive)
- GI50 [10]: 19 µM (inactive)
- GI50 [11]: 18.1 µM (inactive)
- GI50 [12]: 17.5 µM (inactive)
- GI50 [13]: 19.4 µM
- GI50 [14]: 11 µM (inactive)
- GI50 [15]: 17.2 µM (inactive)
- GI50 [16]: 15.6 µM (inactive)
- GI50 [17]: 17.7 µM (inactive)
- GI50 [18]: 16.8 µM (inactive)
- GI50 [19]: 14.3 µM (inactive)
- GI50 [20]: 16.2 µM (inactive)
- GI50 [21]: 17.3 µM (inactive)
- GI50 [22]: 17.8 µM (inactive)
- GI50 [23]: 16.6 µM (inactive)
- GI50 [24]: 18 µM (inactive)
- GI50 [25]: 18.7 µM (inactive)
- GI50 [58]: 14 µM (inactive)
- GI50 [26]: 16.9 µM (inactive)
- GI50 [27]: 19.1 µM (inactive)
- GI50 [28]: 15.1 µM (inactive)
- GI50 [29]: 17.9 µM (inactive)
- GI50 [30]: 14 µM (inactive)
- GI50 [31]: 14 µM (inactive)
- GI50 [32]: 14.4 µM (inactive)
- GI50 [33]: 16.8 µM (inactive)
- GI50 [34]: 17.5 µM (inactive)
- GI50 [35]: 16.4 µM (inactive)
- GI50 [36]: 13.6 µM (inactive)
- GI50 [37]: 20.6 µM (inactive)
- GI50 [38]: 16.4 µM (inactive)
- GI50 [39]: 18.5 µM (inactive)
- GI50 [40]: 18.1 µM (inactive)
- GI50 [41]: 13.6 µM (inactive)
- GI50 [42]: 17.7 µM (inactive)
- GI50 [43]: 15.2 µM (inactive)
- GI50 [44]: 18.8 µM (inactive)
- GI50 [45]: 16.9 µM (inactive)
- GI50 [46]: 16 µM (inactive)
- GI50 [47]: 6.89 µM (inactive)
- GI50 [48]: 20.9 µM (inactive)
- GI50 [50]: 19.9 µM (inactive)
- GI50 [51]: 20 µM (inactive)
- GI50 [52]: 15.9 µM (inactive)
- GI50 [53]: 17.4 µM (inactive)
- GI50 [54]: 17.6 µM (inactive)
- GI50 [55]: 15.5 µM (inactive)
- GI50 [56]: 19.4 µM (inactive)
